Patent US20040005537A1, “Method of identifying toxic agents using differential gene expression” (priority 2000, published 2004)

Test system: rat heart tissue
Assay: GENECALLING differential gene expression analysis after dosing of serotonin modulating agents
Format: in vivo, Sprague Dawley rats
Protocol: Control animals received sterile water or canola oil. The animals were sacrificed 24 hours following the last dose. Liver tissue was dissected from the animals, and total RNA was recovered from the dissected tissue. cDNA was prepared and the resulting samples were processed through using GENECALLING™ differential expression analysis as described in U.S. Pat. No. 5,871,697 and in Shimkets et al., Nature Biotechnology 17:798-803 (1999). The contents of these patents and publications are incorporated herein by reference in their entirety.
Thousands of gene fragments were initially found to be differentially expressed in rat heart tissue in response to serotonin modulating agents in. Genes fragments whose expression levels were modulated greater than ±1.5-fold were selected for further analysis.
Column 6 of Table 1, entitled “Function”, lists the type of classification assigned for the protein, based on its function. The 210 single nucleic acid sequences identified herein, are referred to herein as CARDIOTOX 1-210.

Structure (SMILES): CCNC(C)Cc1cccc(C(F)(F)F)c1 (centres unmarked) [fenfluramine]
- Effects on Transcription Level: Novel gene fragment, 467 bp, 94% SI to mouse gelsolin [J04953] (CARDIOTOX 70): −3.6 fold
- Effects on Transcription Level: Novel gene fragment, 535 bp, 90% SI to mouse slow/cardiac troponin C [M29793] (CARDIOTOX 71): −3.7 fold
- Effects on Transcription Level: Novel gene fragment, 445 bp, 85% SI to human skeletal muscle alpha 2 actinin [M86406] (CARDIOTOX 72): −2.0 fold
- Effects on Transcription Level: Novel gene fragment, 246 bp, 89% SI to mouse ponsin-1 [AF078667] (CARDIOTOX 73): −2.8 fold
- Effects on Transcription Level: Novel gene fragment, 126 bp, 77% SI to human DNA sequence from cosmid V311G7, between markers DXS366 and DXS87 on chromosome X [Z69304] (CARDIOTOX 74): +1.9 fold
- Effects on Transcription Level: Novel gene fragment, 370 bp (CARDIOTOX 75): −3.0 fold
- Effects on Transcription Level: Novel gene fragment, 337 bp, 78% SI to novel human protein AHNAK [M80899] (CARDIOTOX 76): −3.6 fold
- Effects on Transcription Level: Novel gene fragment, 100 bp, 93% SI to human KIAA0750 protein [ABO18293] (CARDIOTOX 77): −9.0 fold
- Effects on Transcription Level: Novel gene fragment, 44 bp (CARDIOTOX 78): −6.7 fold
- Effects on Transcription Level: Novel gene fragment, 698 bp, 93% SI to mouse plenty-of-prolines-101 [AF062655] (CARDIOTOX 79): −2.5 fold
- Effects on Transcription Level: Novel gene fragment, 660 bp, 84% SI to mouse membrane protein TMS-2 [AF181685] (CARDIOTOX 80): −3.7 fold
- Effects on Transcription Level: Novel gene fragment, 115 bp (CARDIOTOX 81): −6.3 fold
- Effects on Transcription Level: Novel gene fragment, 294 bp, 95% SI to mouse Ndr1 related protein Ndr2 [AB033921] (CARDIOTOX 82): −2.0 fold
- Effects on Transcription Level: Novel gene fragment, 198 bp (CARDIOTOX 83): +2.7 fold
- Effects on Transcription Level: Novel gene fragment, 730 bp, 86% SI to mouse E800 [Y10968] (CARDIOTOX 84): −2.4 fold
- Effects on Transcription Level: Novel gene fragment, 294 bp, 98% SI to cysteine conjugate beta-lyase [S61960] (CARDIOTOX 85): −2.4 fold
- Effects on Transcription Level: Aconitase (CARDIOTOX 86, GenBank A1243266): −3.4 fold
- Effects on Transcription Level: Ribosomal protein L7 (CARDIOTOX 87, GenBank M17422): +2.5 fold
- Effects on Transcription Level: Ribosomal protein L9 (CARDIOTOX 88, GenBank X51706): +11.0 fold
- Effects on Transcription Level: Ribosomal protein L12 (CARDIOTOX 89, GenBank X53504): −1.5 fold
- Effects on Transcription Level: 18S, 5.8S, and 28S ribosomal RNA's (CARDIOTOX 90, GenBank V01270): +6 fold
- Effects on Transcription Level: Pyruvate dehydrogenase kinase 2 (PDK2) (CARDIOTOX 91, GenBank U10357): −7.7 fold
- Effects on Transcription Level: D-Binding Protein (DBP) (CARDIOTOX 92, GenBank J03179): −1.9 fold
- Effects on Transcription Level: Lipoprotein lipase (CARDIOTOX 93, GenBank L03294): −2.3 fold
- Effects on Transcription Level: Non-neuronal enolase (CARDIOTOX 94, GenBank X02610): +3.5 fold
- Effects on Transcription Level: Glycogen phosphorylase (muscle isozyme) (CARDIOTOX 95, GenBank L10669): −2.3 fold
- Effects on Transcription Level: Cytochrome c oxidase subunit IV (CARDIOTOX 96, GenBank X14209): +10.0 fold
- Effects on Transcription Level: Alpha-globin (CARDIOTOX 97, GenBank M17083): +3.4 fold
- Effects on Transcription Level: Beta-globin (CARDIOTOX 98, GenBank X06701): +3.6 fold
- Effects on Transcription Level: Myoglobin (CARDIOTOX 99, GenBank AF197916): +4.0 fold
- Effects on Transcription Level: Titin (CARDIOTOX 100, GenBank L38717): −1.6 fold
- Effects on Transcription Level: Skeletal muscle actin (CARDIOTOX 101, GenBank V01218): −14.9 fold
- Effects on Transcription Level: Myosin light chain 2 (MLC2) (CARDIOTOX 102, GenBank M11851): +2.4 fold
- Effects on Transcription Level: Alpha cardiac myosin heavy chain (CARDIOTOX 103, GenBank X15938): −7.5 fold
- Effects on Transcription Level: Troponin I (CARDIOTOX 104, GenBank U77354): +1.8 fold
- Effects on Transcription Level: Cardiac calsequestrin (CARDIOTOX 105, GenBank AF001334): −2.4 fold
- Effects on Transcription Level: Sulfated glycoprotein 2 (CARDIOTOX 106, GenBank M16975): −1.8 fold
- Effects on Transcription Level: Aquaporin 7 (CARDIOTOX 107, GenBank AB000507): +1.5 fold
- Effects on Transcription Level: Carnitine/acylcarnitine carrier protein (CARDIOTOX 108, GenBank X97831): −2.6 fold
- Effects on Transcription Level: Glu-Pro Dipeptide Repeat (CARDIOTOX 109, GenBank U40628): −5.6 fold
- Effects on Transcription Level: Cystatin beta (CARDIOTOX 110, GenBank X54737): +2.7 fold
- Effects on Transcription Level: Novel gene fragment, 593 bp, 90% SI to human calcineurin B-like protein [Z08983] (CARDIOTOX 111): +2.1 fold
- Effects on Transcription Level: Novel gene fragment, 179 bp, 88% SI to human titin [X90568] (CARDIOTOX 112): −3.0 fold
- Effects on Transcription Level: Novel gene fragment, 700 bp, 91% SI to mouse periplakin (PPL) [AF116523] (CARDIOTOX 113): +2.0 fold
- Effects on Transcription Level: Long chain acyl-CoA dehydrogenase (LCAD) (CARDIOTOX 114, GenBank J05029): +1.8 fold
- Effects on Transcription Level: Sulfated glycoprotein 1 (SGP-1) (CARDIOTOX 115, GenBank M19936): −2.0 fold
- Effects on Transcription Level: Catalase (CARDIOTOX 116, GenBank M11670): +2.1 fold
- Effects on Transcription Level: Alpha-fodrin (A2A) (Nonerythroid spectrin alpha subunit) (CARDIOTOX 117, GenBank AF084186): −1.8 fold
- Effects on Transcription Level: Cardiac specific sodium channel alpha-subunit (CARDIOTOX 118, GenBank M27902): −2.1 fold
- Effects on Transcription Level: Glu-Pro Dipeptide Repeat (CARDIOTOX 119, GenBank U40628): +4.2 fold
- Effects on Transcription Level: Novel gene fragment, 200 bp, 64% SI to human KIAA0733 protein [AB018316] (CARDIOTOX 120): −1.7 fold
- Effects on Transcription Level: RNA polymerase II transcription factor SIII (p18 subunit) (CARDIOTOX 121, GenBank L42855): +1.7 fold
- Effects on Transcription Level: Protein-tyrosine phosphalase (LRP) (CARDIOTOX 122, GenBank L01702): +2.0 fold
- Effects on Transcription Level: Skeletal muscle selenoprotein W (SelW) (CARDIOTOX 123, GenBank U25264): −1.8 fold
- Effects on Transcription Level: Sarcoplasmic reticulum 2+-Ca-ATPase (CARDIOTOX 124, GenBank X15635): −1.6 fold
- Effects on Transcription Level: Ribosomal protein S7 (CARDIOTOX 125, GenBank X53377): +1.0 fold
- Effects on Transcription Level: Ribophorin I (CARDIOTOX 126, GenBank X05300): +1.6 fold
- Effects on Transcription Level: Beta cardiac myosin heavy chain (CARDIOTOX 127, GenBank X15939): +2.3 fold
- Effects on Transcription Level: ADP-ribosylation factor 1 (CARDIOTOX 128, GenBank L12380): +1.2 fold
- Effects on Transcription Level: Laminin receptor (CARDIOTOX 129, GenBank U04942): +2.6 fold
- Effects on Transcription Level: Novel gene fragment, 206 bp, 89% SI to human seryl-tRNA synthetase [X91257] (CARDIOTOX 130): +1.8 fold
- Effects on Transcription Level: Annexin VI (CARDIOTOX 131, GenBank X86086): −1.8 fold
- Effects on Transcription Level: Novel gene fragment, 325 bp, 90% SI to mouse N-RAP [U76618] (CARDIOTOX 132): +1.7 fold
- Effects on Transcription Level: Novel gene fragment, 61 bp (CARDIOTOX 134) (LD10 dose for three days): −2.4 fold
- Effects on Transcription Level: Novel gene fragment, 337 bp (CARDIOTOX 133) (LD10 dose for three days): −2.4 fold
- Effects on Transcription Level: Novel gene fragment, 378 bp, 88% SI to human coatomer protein (COPA) [U24105] (CARDIOTOX 138) (LD10 dose for three days): −1.6 fold
- Effects on Transcription Level: Long chain 3-ketoacyl-CoA thiolase (CARDIOTOX 136) (LD10 dose for three days, GenBank D16479): −1.1 fold
- Effects on Transcription Level: TATA-binding protein interacting protein 120 (TIP120) (CARDIOTOX 135) (LD10 dose for three days, GenBank D87671): +1.9 fold
- Effects on Transcription Level: Serine protease (CARDIOTOX 139) (LD10 dose for three days, GenBank D88250): +4.0 fold
- Effects on Transcription Level: Thymosin beta-4 (CARDIOTOX 137) (LD10 dose for three days, GenBank M34043): +1.6 fold
- Effects on Transcription Level: Annexin VI (no CARDIOTOX assignment given) (LD10 dose for three days, GenBank X86086): −1.7 fold
